IC50 data for 39 compounds are collected here from the Kinase Knowledgebase extract (Sharma et al. 2016).

This test addresses CDK2 (UniProt P24941). As to the kind of experiment: Enzyme Assay.

One may read the IC50 as the concentration at which inhibition is half-maximal. `Clc1cncc(N(Cc2ccccc2)C2CCCCC2)n1` gave an IC50 of 64 µM. That is a double-digit micromolar value.

With `NS(=O)(=O)c1cccc(Nc2cncc(Cl)n2)c1`, the IC50 was 7 µM.

`NC(=O)c1sccc1Nc1cncc(Cl)n1` showed an IC50 of 9 µM. The IC50 values of the last two compounds are within 1.5-fold of each other.

`CCOC(=O)c1ccc(CNc2cncc(Cl)n2)o1` returned an IC50 of 36 µM.

For the compound `Clc1ccc(Nc2cncc(Cl)n2)nc1`, the IC50 is 8 µM.

Compound `CC(C)c1nccn1-c1cncc(Nc2ccccc2)n1` returned an IC50 of 12 µM.

Consider `Oc1cccc(Nc2cncc(Cl)n2)c1`, for which the IC50 was determined as 6 µM.

Compound `Clc1cncc(NC(c2ccccc2)c2ccccc2)n1` displayed a half-maximal inhibitory concentration (IC50) of 23 µM.

The compound `NCCCN(c1cncc(Cl)n1)C1CCCCC1` returned an IC50 of 4 µM.

In turn, `Clc1cncc(NCCc2c[nH]cn2)n1` yielded an IC50 of 73 µM. This IC50 lies about 18-fold higher than the previous one.

In turn, `Fc1ccc(Nc2cncc(Cl)n2)cc1` registered an IC50 of 16 µM.

The compound `FC(F)(F)COc1cncc(Nc2ccccc2)n1` yielded an IC50 of 17 µM.

Consider `Clc1cncc(Nc2cccnc2)n1`, for which the IC50 was 27 µM. Against the preceding compound, the IC50 is about 1.6-fold higher.

Compound `O[C@@H]1CCCC[C@H]1CN(c1cncc(Cl)n1)C1CCCCC1` registered an IC50 of 12 µM.

On to `Clc1cncc(NCCNc2cncc(Cl)n2)n1`, for which the IC50 turned out to be 43 µM.

In the case of `CC(C)CNc1cncc(Cl)n1`, the IC50 is 105 µM.

For the compound `Clc1cncc(-n2cccn2)n1`, the IC50 was found to be 82 µM.

`c1ccc(Nc2cncc(-n3ccnc3)n2)cc1`: the IC50 came to 5.5 µM. This IC50 is about 15-fold lower than that of the compound before.

Regarding `Clc1cncc(Nc2ccccc2)n1`, the IC50 stood at 9 µM.

Compound `OCCN(c1cncc(Cl)n1)C1CCCCC1` yielded an IC50 of 54 µM.

For the compound `Clc1cncc(NCc2ccc(Cl)s2)n1`, the IC50 is 32 µM.

`Clc1cncc(NC[C@H]2CCCN2)n1` showed an IC50 of 5 µM. This IC50 lies about 6.4-fold lower than the previous one.

`CSc1cncc(Nc2ccccc2)n1`: the IC50 stood at 3 µM.

On to `Clc1cncc(Nc2ccccn2)n1`, for which the IC50 worked out at 17 µM.

`Clc1cncc(NCc2cc(Oc3cncc(Cl)n3)no2)n1` showed an IC50 of 40 µM.

Turning to `Oc1ccc(Nc2cncc(Cl)n2)cc1`, the IC50 is 24 µM.

On to `Clc1cncc(NC2CCCC2)n1`, for which the 50% inhibitory concentration (IC50) stood at 52 µM.

With `NS(=O)(=O)CCNc1cncc(Cl)n1`, the IC50 stood at 60 µM.

`O=C(O)c1ccc(Nc2cncc(Cl)n2)nc1`: the IC50 is 68 µM.

`O=c1[nH]c2ccccc2n1-c1cncc(Cl)n1`: the IC50 is 10 µM. This IC50 is about 6.8-fold lower than that of the compound before.

`Clc1cncc(NC2CCCCC2)n1` showed an IC50 of 27 µM.

With `Cc1cc(Nc2cncc(Cl)n2)[nH]n1`, the IC50 was found to be 49 µM.

Compound `Clc1cncc(-n2cnc3ccccc32)n1` returned an IC50 of 35 µM.

On to `Clc1cncc(N2CCc3ccccc3C2)n1`, for which the IC50 was determined as 98 µM. Against the preceding compound, the IC50 is about 2.8-fold higher.

Take `c1cn(-c2cncc(-n3ccnc3)n2)cn1`: the IC50 stood at 105 µM.

Consider `CC(=O)Nc1ccc(Nc2cncc(Cl)n2)cc1`, for which the IC50 was found to be 15 µM.

With `Cc1cc2cc(CNc3cncc(Cl)n3)ccc2[nH]1`, the IC50 came out at 14 µM.

`Clc1cncc(N2CCN(c3ccccc3)CC2)n1` showed an IC50 of 102 µM. This IC50 is about 7.3-fold higher than that of the compound before.

Take `CC(C)(C)c1cc(N)n(-c2cncc(Cl)n2)n1`: the IC50 was 147 µM. This IC50 and that of the compound before are within 1.5-fold of each other.
